Measured values published in patent US20110183336A1, “Method to Predict Responsiveness of Breast Cancer to Polyamine-Type Chemotherapy” (THE REGENTS OF THE UNIVERSITY OF CALIFORNIA, priority 2007, published 2011).

Key:
Type in all cases: cell-based, human
184B5 = assay: Cell growth inhibition assay (Cell Titer Glo); conditions: 184B5, HMEC, 72 h
Procedure: (§1) Cell culture: Breast cell lines were obtained from the ATCC and from collections developed in the laboratories of Drs. Steve Ethier and Adi Gazdar.
(§2) Cell growth inhibition assay and data analysis: Cells were plated at proper density in 96-well plates such that they would remain in log growth at the end of assay time. The cells were allowed to attach overnight before being exposed to CGC-11047 for 72 h. Drugs were dissolved in water as 100 mM stock. For the dose response study, a set of 9 doses from 5×10^−3 to 1.3×10^−8 M (final concentration) in 1:5 serial dilution were added in triplicate wells. The final DMSO concentration in the treated well was 0.3% or less. The cell growth was determined using Cell Titer Glo (CTG) assay (CellTiter-Glo Luminescent Cell Viability Assay, Promega, Madison, Wis.), with slight modification form manufacturer's protocol, at day 0 (time when drug was added) and at day 3 of drug exposure. Briefly, CTG reagent was diluted with PBS (1:1, volume: volume) and the culture media was removed from the 96-well plate prior to adding 50 μl per well of the diluted CTG reagent. Luminescence from the assay was recorded using BIO-TEK FLx800.
(§3) Data calculations were made according to the method described by the NCI/NIH DTP Human Tumor Cell Line Screen Process (http://dtp.nci.nih.gov/branches/btb/ivclsp.html) and as described previously (Monks, A et al., JNCI 83:757-766, 1991). The percent growth curve is calculated as [(T−T0)/(C−T0)]×100, where T0 is the cell count at day 0, C is the vehicle control (e.g. 0.3% DMSO without drug) cell count at day 3, and T is the cell count at the test concentration. The GI50 and TGI value are determined as the drug concentration that results in a 50% and 0% growth at 72 h drug exposure. LC50 is calculated as [(T−T0)/T0]×100=−50, when T<T0.

600MPE = assay: Cell growth inhibition assay (Cell Titer Glo); conditions: Luminal, 72 h
Procedure: as §1, §2, §3

BT474 = assay: Cell growth inhibition assay (Cell Titer Glo); conditions: BT474, Luminal, 72 h
Procedure: as §1, §2, §3

BT483 = assay: Cell growth inhibition assay (Cell Titer Glo); conditions: BT483, Luminal, 72 h
Procedure: as §1, §2, §3

HCC3153 = assay: Cell growth inhibition assay (Cell Titer Glo); conditions: HCC3153, Basal A, 72 h
Procedure: as §1, §2, §3

Hs578T = assay: Cell growth inhibition assay (Cell Titer Glo); conditions: Basal B, 72 h
Procedure: as §1, §2, §3

LY2 = assay: Cell growth inhibition assay (Cell Titer Glo); conditions: LY2, Luminal, 72 h
Procedure: as §1, §2, §3

MCF12A = assay: Cell growth inhibition assay (Cell Titer Glo); conditions: N, Basal B, 72 h
Procedure: as §1, §2, §3

SKBR3 = assay: Cell growth inhibition assay (Cell Titer Glo); conditions: SKBR3, Luminal, 72 h
Procedure: as §1, §2, §3

SUM229PE = assay: Cell growth inhibition assay (Cell Titer Glo); conditions: Basal B, 72 h
Procedure: as §1, §2, §3

SUM52PE = assay: Cell growth inhibition assay (Cell Titer Glo); conditions: Luminal, 72 h
Procedure: as §1, §2, §3

T4 = assay: Cell growth inhibition assay (Cell Titer Glo); conditions: T4, Basal B, 72 h
Procedure: as §1, §2, §3

HCC70 cells = assay: Caspase Glo 3/7 assay (apoptosis); conditions: select sensitive cell lines except T47D (FIG. 4: HCC70); 0.3, 10 and 300 uM
Procedure: (§4) FIGS. 4A and 4B. Effect of CGC-11047 on HCC70 cells with respect to cell cycle and apoptosis. In FIG. 4A, cells were treated for 72 hours with 0, 0.3, 10, or 100 μM CGC-11047. Shown are percentage of the cell population is G0-G1, S, or G2-M phase of cell growth. In FIG. 4B, cells were treated for 42, 48, or 72 hours with 0.3, 10, or 300 μM CGC-11047. Shown is the caspase activity (apoptosis) of treated cells within each condition compared to untreated controls.
Caspase Glo assay: Apoptosis was measured using the Promega Caspase Glo 3/7 assay (Promega, Madison, Wis.). Lyophilized pellet was eluted in solvent to make working Caspase Glo reagent. After incubation of cells with CGC-11047 at specified concentrations for 24, 48, and 72 hours, 50 ul of Caspase Glo reagent was added to the wells. After an incubation time of 1 hour, luminescence was measured using a luminometer.
(§5) Select sensitive cell lines were treated with CGC-11047 at 0.3, 10 and 300 uM. BrdU incorporation was measured and cell cycle distribution was analyzed at 48 and 72 hrs. Apoptosis was measured using the Promega Caspase Glo 3/7 assay.

T47D cells = assay: BrdU incorporation and cell cycle distribution; conditions: T47D (FIG. 5); 0.3, 10 and 300 uM; 48 and 72 hrs
Procedure: as §4, with “5A” for “4A”, “5B.” for “4B.”, “T47D” for “HCC70”, “5A,” for “4A,”, “5B,” for “4B,”
BrdU cell staining and labeling: After incubation of cells with CGC-11047 at specified concentrations for 24, 48, and 72 hours, cells were pulsed with a final BrdU concentration of 10 uM for 30 minutes. Cells were then fixed with −20° C. 70% ethanol overnight. Fixed cells were incubated with 2N HCl for 5-7 minutes to denature DNA. Cell were then rinsed with 1× PBS to neutralize HCl.
Cells were incubated with primary donkey anti-BrdU antibody (diluted 1:100 in 0.5% PBS-tween20) for 1 hour then rinsed well with 0.5% PBS-tween20. Cells were incubated with Hoechst 33642 (diluted 1:2000) and secondary anti-donkey antibody (diluted 1:500) for 45 minutes and washed well with PBS-tween. […]
as §5

## CCNCCCNC/C=C\CNCCCNCC [CGC-11047]
184B5
  TGI: 400 µM
184B5; Homo sapiens
  GI50: 300 µM
600MPE; Homo sapiens
  GI50: 2 µM
600MPE
  TGI: 2000 µM
BT474
  TGI: 1000 µM
BT474; Homo sapiens, BT-474
  GI50: 400 µM
BT483
  TGI: 1300 µM
BT483; Homo sapiens, BT-483
  GI50: 900 µM
HCC3153
  TGI: 8 µM
HCC3153; Homo sapiens
  GI50: 1.3 µM
Hs578T
  TGI: 500 µM
Hs578T; Homo sapiens, Hs-578T
  GI50: 0.4 µM
LY2; Homo sapiens
  GI50: 1300 µM
LY2
  TGI: 3000 µM
MCF12A; Homo sapiens, MCF-12A
  GI50: 100 µM
MCF12A
  TGI: >100 µM
SKBR3; Homo sapiens, SK-BR-3
  GI50: 5000 µM
SKBR3
  TGI: >5000 µM
SUM229PE
  TGI: 1100 µM
SUM229PE; Homo sapiens
  GI50: 90 µM
SUM52PE; Homo sapiens
  GI50: 10 µM
SUM52PE
  TGI: 300 µM
T4; Homo sapiens
  GI50: 2 µM
T4
  TGI: 800 µM
HCC70 cells
  apoptosis (caspase 3/7 activity): very little apoptosis detected
T47D cells
  cell cycle distribution / BrdU incorporation: very little changes in the cell cycle
